Test results as given in PMC9835529, “Investigation of Novel Quinoline–Thiazole Derivatives as Antimicrobial Agents: In Vitro and In Silico Approaches” (ACS Omega, 2022).
≈ marks a conversion by molar mass, not a printed value.

Legend:
[1] = tested on: NIH/3T3 cells; experiment: Cytotoxicity on NIH/3T3 healthy cell line; assay type: cell-based; conditions: Mus musculus, NIH3T3, 24 h incubation
Description: NIH/3T3 cells were incubated in Dulbecco’s modified Eagle’s medium (DMEM) (Sigma-Aldrich, St. Louis, MO), added with fetal calf serum, penicillin (100 IU/mL), streptomycin ([…]), and 7.5% NaHCO3 at 37 °C in a humidified atmosphere of 95% air and 5% CO2. NIH/3T3 cells were seeded into the 96-well plates at a density of 1 × 10^4 cells. After 24 h of incubating period, the culture media were removed, and test compounds were added. After 24 h of incubation period, colorimetric measurements were performed by a microplate reader (Biotek) at 540 nm. Inhibition % at all concentrations was determined using the formula below, and the IC50 values were calculated from a dose–response curve obtained by plotting the percentage inhibition versus the log concentration with the use of Microsoft Excel 2013.

[2] = tested on: C. glabrata ATCC 90030; experiment: Anticandidal broth microdilution (EUCAST EDef 7.1), MIC90; assay type: cell-based, Candida glabrata; conditions: Nakaseomyces glabratus, ATCC90030, C. glabrata ATCC 90030
Description: (§1) E. coli (ATCC 35218), E. coli (ATCC 25922), S. aureus (ATCC 6538), methicillin-resistant S. aureus (MRSA) (clinical isolate), S. typhimurium (ATCC 13311), and K. pneumoniae (NCTC 9633) cells for antibacterial effect, and C. albicans (ATCC 24433), C. glabrata (ATCC 90030), C. krusei (ATCC 6258), and C. parapsilosis (ATCC 22019) for the antifungal effect of the final compounds were used to determine the MIC90 values. The broth microdilution procedure specified in the M07-A9 document of the Clinical and Laboratory Standards Institute (CLSI) was used for antibacterial study,[55] and the EDef 7.1 document published by EUCAST was used for the antifungal study.[56] For both activity studies, the detailed procedures were explained in previous studies.[57],[58]

[3] = tested on: Salmonella typhimurium ATCC 13311; experiment: Antibacterial broth microdilution (CLSI M07-A9), MIC90; assay type: cell-based; conditions: Salmonella enterica; S. typhimurium ATCC 13311
Description: (§2) The broth microdilution procedure specified in the M07-A9 document of the Clinical and Laboratory Standards Institute (CLSI) was used for antibacterial study,[55] and the EDef 7.1 document published by EUCAST was used for the antifungal study.[56] For both activity studies, the detailed procedures were explained in previous studies.[57],[58]

[4] = tested on: Staphylococcus aureus ATCC 6538; experiment: as above; assay type: cell-based; conditions: Staphylococcus aureus, ATCC6538; S. aureus ATCC 6538; read-out: MIC90
Description: as §2

[5] = tested on: Klebsiella pneumoniae NCTC 9633; experiment: as above; assay type: cell-based; conditions: NCTC9633, K. pneumoniae NCTC 9633
Description: as §2

[6] = tested on: E. coli ATCC 25922; experiment: as above; assay type: cell-based; conditions: Escherichia coli, ATCC25922
Description: as §2

[7] = tested on: Escherichia coli ATCC 35218; experiment: as above; assay type: cell-based; conditions: Escherichia coli, ATCC35218; E. coli ATCC 35218
Description: as §2

[8] = tested on: methicillin-resistant S. aureus (MRSA) (clinical isolate); experiment: as above; assay type: cell-based; conditions: Staphylococcus aureus
Description: as §2

[9] = tested on: Candida albicans ATCC 24433; experiment: Anticandidal broth microdilution (EUCAST EDef 7.1), MIC90; assay type: cell-based; conditions: Candida albicans, ATCC24433, C. albicans ATCC 24433; read-out: MIC90
Description: as §1

[10] = tested on: Candida parapsilosis ATCC 22019; experiment: as above; assay type: cell-based; conditions: Lodderomyces parapsilosis, ATCC22019, C. parapsilosis ATCC 22019; read-out: MIC90
Description: as §1

[11] = tested on: Candida krusei ATCC 6258; experiment: as above; assay type: cell-based; conditions: Pichia kudriavzevii, ATCC6258, C. krusei ATCC 6258; read-out: MIC90
Description: as §1

[12] = target: T1, Lanosterol 14α-demethylase (LMD, CYP51A1) (Candida glabrata, UniProt P50859); experiment: LDM (CYP51A1) inhibition by LC-MS-MS quantification of ergosterol level; assay type: cell-based; conditions: C. glabrata; for inhibition at 0.06 µg/mL: 0.06 μg/mL; for inhibition at 0.06 µg/mL / inhibition at 0.24 µg/mL / inhibition at 0.98 µg/mL: read-out: CYP51A1 Inhibition%; for inhibition at 0.24 µg/mL: 0.24 μg/mL; for inhibition at 0.98 µg/mL: 0.98 μg/mL
T1 construct: tested against Candida strains via the determination of ergosterol production; endogenous in cells; host or cells: C. glabrata (ATCC 90030)
T1 sequence (P50859 whole entry): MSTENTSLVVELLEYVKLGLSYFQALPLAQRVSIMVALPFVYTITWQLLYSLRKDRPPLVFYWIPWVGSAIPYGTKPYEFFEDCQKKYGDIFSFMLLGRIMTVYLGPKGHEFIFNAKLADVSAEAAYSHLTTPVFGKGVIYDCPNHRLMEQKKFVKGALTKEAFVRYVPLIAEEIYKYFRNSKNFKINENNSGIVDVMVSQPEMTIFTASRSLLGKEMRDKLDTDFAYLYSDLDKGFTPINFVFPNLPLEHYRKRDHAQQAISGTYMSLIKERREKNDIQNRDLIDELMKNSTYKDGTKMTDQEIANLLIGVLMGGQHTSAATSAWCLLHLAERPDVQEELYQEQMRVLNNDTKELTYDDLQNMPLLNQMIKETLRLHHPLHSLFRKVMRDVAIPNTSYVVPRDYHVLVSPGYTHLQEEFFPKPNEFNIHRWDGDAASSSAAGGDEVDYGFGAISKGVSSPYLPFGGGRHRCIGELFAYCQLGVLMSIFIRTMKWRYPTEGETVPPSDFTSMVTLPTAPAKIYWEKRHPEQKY
Description: The activity of the target compounds was tested against Candida strains via the determination of ergosterol production.
Ergosterol level was determined using the extract of total sterols from C. albicans (and its other species) following the method described by Breivik and Owades.[63] Quantification of the ergosterol level in this extract was carried out by the recently described method.[58],[64]−[66] According to these described studies, in the current work, compounds 4b, 4e, 4f, and 4h–m were undertaken to investigate their action mechanism. Thus, the LC-MS-MS-based method that quantifies the ergosterol level was applied. […]. Ergosterol quantity in negative control samples was regarded as 100%. All concentrations were analyzed in quadruplicate, and the results were expressed as mean ± standard deviation (SD).

Row | Compound | melting point | MIC90 [2] | MIC90 [3] | MIC90 [4] | MIC90 [5] | MIC90 [6] | MIC90 [7] | MIC90 [8] | MIC90 [9] | MIC90 [10] | MIC90 [11] | inhibition at 0.06 µg/mL [12] | inhibition at 0.24 µg/mL [12] | inhibition at 0.98 µg/mL [12] | IC50 [1] | effect on ergosterol production / LMD enzyme inhibition (in words) [12]
1 | COc1ccc2nc(Cl)c(/C=N/Nc3nc(-c4ccc(F)cc4)cs3)cc2c1 [4a] | 193 to 195 °C | 1.95 µg/mL (≈ 4.72 µM) | > 1000 µg/mL | > 1000 µg/mL | > 1000 µg/mL | > 1000 µg/mL | > 1000 µg/mL | > 1000 µg/mL | > 1000 µg/mL | 15.6 µg/mL (≈ 37.9 µM) | 31.2 µg/mL (≈ 75.7 µM) | – | – | – | 39.8 ± 1.45 µM | –
2 | COc1ccc2nc(Cl)c(C=NNc3nc(-c4ccc(Cl)cc4)cs3)cc2c1 [4b] | 195 to 197 °C | < 0.06 µg/mL | > 1000 µg/mL | > 1000 µg/mL | > 1000 µg/mL | > 1000 µg/mL | > 1000 µg/mL | > 1000 µg/mL | > 1000 µg/mL | 31.2 µg/mL (≈ 72.8 µM) | 31.2 µg/mL (≈ 72.8 µM) | 36.2 ± 0.965% | 51.8 ± 1.61% | 60.2 ± 2.1% | 14.7 ± 0.34 µM | showed their anticandidal activity via LMD enzyme inhibition
3 | COc1ccc2nc(Cl)c(/C=N/Nc3nc(-c4ccc([N+](=O)[O-])cc4)cs3)cc2c1 [4c] | 245 to 253 °C | 62.5 µg/mL (≈ 142 µM) | > 1000 µg/mL | > 1000 µg/mL | > 1000 µg/mL | > 1000 µg/mL | > 1000 µg/mL | > 1000 µg/mL | > 1000 µg/mL | 31.2 µg/mL (≈ 71 µM) | 31.2 µg/mL (≈ 71 µM) | – | – | – | 31.6 ± 0.87 µM | –

Continued, in another order:

Row | melting point | MIC90 [2] | MIC90 [3] | MIC90 [4] | MIC90 [5] | MIC90 [6] | MIC90 [7] | MIC90 [8] | MIC90 [9] | MIC90 [10] | MIC90 [11] | inhibition at 0.06 µg/mL [12] | inhibition at 0.24 µg/mL [12] | inhibition at 0.98 µg/mL [12] | Compound | IC50 [1] | effect on ergosterol production / LMD enzyme inhibition (in words) [12]
4 | 220 to 222 °C | 1.95 µg/mL (≈ 4.94 µM) | > 1000 µg/mL | > 1000 µg/mL | > 1000 µg/mL | > 1000 µg/mL | > 1000 µg/mL | > 1000 µg/mL | 1.95 µg/mL (≈ 4.94 µM) | 15.6 µg/mL (≈ 39.6 µM) | 1.95 µg/mL (≈ 4.94 µM) | – | – | – | COc1ccc2nc(Cl)c(/C=N/Nc3nc(-c4ccccc4)cs3)cc2c1 [4d] | 1.26 ± 0.033 µM | –
5 | 240 to 242 °C | < 0.06 µg/mL | > 1000 µg/mL | > 1000 µg/mL | > 1000 µg/mL | > 1000 µg/mL | > 1000 µg/mL | > 1000 µg/mL | 3.91 µg/mL (≈ 9.31 µM) | 3.91 µg/mL (≈ 9.31 µM) | 62.5 µg/mL (≈ 149 µM) | 16.7 ± 0.774% | 18.3 ± 0.785% | 21.7 ± 0.955% | COc1ccc2nc(Cl)c(/C=N/Nc3nc(-c4ccc(C#N)cc4)cs3)cc2c1 [4e] | > 1000 µM | did not decrease the ergosterol production compared to the standard drugs
